The TGI is the concentration giving total growth inhibition.

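Cultured in 96-well plates, cells were exposed to test compound for 48 hours across five concentrations. The concentration for full growth arrest is given as TGI.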 Bounds are passed on as bounds.

Common to all, as to experiment: DTP human tumour cell line panel, 48 h
In assay [1] the test system is SK-OV-3 ovarian.
Assay [2] has as its system PC-3 prostate.
Assay [3] relates to SF-268 CNS.
In assay [4] the test system is MOLT-4 leukemia.
Assay [5] deals with SNB-19 CNS.
Assay [6] has as its system SW-620 colon.
The subject of assay [7] is NCI-H23 lung.
Assay [8] relates to MALME-3M melanoma.
Assay [9] concerns OVCAR-3 ovarian.
In assay [10] the test system is SN12C renal.

In the case of `CC(=O)OCC1OC(OCCCOP(=S)(OCCC#N)OCC2OC(n3ccc(N)nc3=O)C(OC(=O)c3ccccc3)C2OC(=O)c2ccccc2)C(OC(C)=O)C(OC(C)=O)C1OC(C)=O` (stereo not given), the TGI in assay [1], in assay [2], in [3], in assay [4], in assay [5] and in assay [6] was > 100 µM in each case. Also, the TGI in assay [7], in assay [8], in assay [9] and in assay [10] was > 100 µM in each case.
With `CN(C)CCc1c2c(nc3ccccc13)C(=O)c1cccnc1C2=O`, the TGI is 2.52 µM in assay [1]; 3.02 µM in assay [2]; 2.69 µM in [3]; 6.71 µM in [4]; 3.88 µM in assay [5]; 1.91 µM in assay [6]. For the same compound, the total growth inhibition concentration (TGI) in assay [7] turned out to be 0.49 µM; in assay [8], 1.79 µM; in assay [9], 1.34 µM; in assay [10], 1.92 µM.
Regarding `Clc1ccc2oc(CCc3ccccc3)nc2c1`, the TGI in assay [1], in assay [2], in assay [3], in [4], in assay [5] and in assay [6] was > 100 µM each time. For the same compound, the TGI in assay [7] was > 100 µM; in [8] it was > 100 µM; in [9] it was 85.1 µM; in assay [10], > 100 µM.
`CN(CCCNC(=O)c1cc(-c2ccccc2)nc2ccccc12)CCCNC(=O)c1cc(-c2ccccc2)nc2ccccc12`: the concentration for total growth inhibition (TGI) in [1] came out at 26.2 µM; in [2], 13 µM; in assay [3], 14 µM; in assay [4], 5.33 µM; in [5] it was 16.7 µM; in assay [6], 3.38 µM. For the same compound, the TGI in assay [7] amounted to 16.1 µM; in assay [8], 3.39 µM; in assay [9], 9.14 µM; in assay [10], 17.4 µM.
Turning to `CCc1ccc2c(c1)N(CC(C)CN(C)C)c1ccccc1S2` (stereo not given), the TGI in assay [1] is 18.7 µM; in assay [2], 17.1 µM; in assay [3], 20.5 µM; in [4], 1.91 µM; in assay [5], 23 µM; in [6] it was 14.6 µM. For the same compound, the concentration for total growth inhibition (TGI) was 21.8 µM in [7], 8.37 µM in [8], 12.4 µM in assay [9] and 19.5 µM in [10].
As for `c1ccc(N=C2c3ccsc3C(=Nc3ccccc3)c3ccsc32)cc1`, the TGI is 16.3 µM in assay [1]; 9.44 µM in assay [2]; 6.82 µM in [3]; 3.77 µM in [4]; 3.88 µM in assay [5]; 3.93 µM in assay [6]. In addition, the TGI in [7] was 3.03 µM; in assay [8], 0.921 µM; in [9] it was 6.55 µM; in assay [10] it was 3.02 µM.
As for `COc1cccc(C(=O)C#Cc2cnc(OC)nc2OC)c1`, the TGI turned out to be 44.9 µM in [1]; 2.88 µM in assay [2]; 6.14 µM in [3]; 0.7 µM in assay [4]; 34.8 µM in [5]; 1.94 µM in [6]. Further, the TGI in assay [7] came to 5.5 µM; in [8] it was 3.23 µM; in [9], 3.62 µM; in assay [10], 2 µM.
Turning to `CO/N=C1/c2sccc2[C@H](NC(=O)C(Cc2ccccc2)NC(=O)OC(C)(C)C)[C@@H]1O` (stereo not given in full), the TGI in assay [1], in assay [2], in assay [3], in assay [4], in assay [5] and in [6] was > 100 µM in each case. Moreover, the TGI in assay [7], in [8], in assay [9] and in [10] was > 100 µM in each case.
As to `O=C(c1ccco1)N(C(=O)N1CCN(c2ccccc2)CC1)S(=O)(=O)c1ccccc1`, the TGI in [1] was > 100 µM; in [2], > 100 µM; in [3] it was > 100 µM; in [4] it was 49.1 µM; in assay [5] it was 85.2 µM; in assay [6], > 100 µM. The TGI was 53.2 µM in assay [7], 99.8 µM in assay [8], > 100 µM in assay [9] and 61.9 µM in [10].
As for `CCCn1c(=O)c(N2CCN(c3ccccc3)CC2)nc2sc3ccccc3c21`, the TGI in assay [1], in assay [2], in [3], in assay [4], in assay [5] and in assay [6] was > 100 µM in each case. Further, the TGI in assay [7], in assay [8], in [9] and in assay [10] was > 100 µM each time.
For the compound `C[N+](C)(C)c1ncnc2c1ncn2C1CCCO1` (stereo not given), the total growth inhibition concentration (TGI) in assay [1], in assay [2], in [3], in [4], in assay [5] and in assay [6] was > 100 µM in each case. Besides, the TGI in [7], in [8], in assay [9] and in assay [10] was > 100 µM in each case.
Regarding `COC(=O)C(Cc1c[nH]c2ccccc12)N=C1Nc2ccncc2S(=O)(=O)N1c1cccc(OC(C)C)c1` (stereo not given), the total growth inhibition concentration (TGI) in assay [1] is > 100 µM; in assay [2], > 100 µM; in assay [3], > 100 µM; in assay [4], 75.8 µM; in [5], > 100 µM; in [6], > 100 µM. In addition, the TGI was 85.8 µM in assay [7], > 100 µM in assay [8], > 100 µM in [9] and > 100 µM in assay [10].
For `N#C/C(C(=S)NCc1ccccc1)=C(/N)N1CCCC1`, the concentration for total growth inhibition (TGI) in [1], in assay [2], in [3], in assay [4], in assay [5] and in [6] was > 100 µM throughout. For the same compound, the concentration for total growth inhibition (TGI) in assay [7], in assay [8], in [9] and in assay [10] was > 100 µM each time.
Turning to `N#Cc1nc(C#N)n(S(=O)(=O)c2ccccc2)c1NS(=O)(=O)c1ccccc1`, the concentration for total growth inhibition (TGI) in assay [1], in assay [2], in assay [3], in [4], in assay [5] and in assay [6] was > 100 µM throughout. Further, the TGI in assay [7], in assay [8], in assay [9] and in assay [10] was > 100 µM each time.

These data come from PubChem BioAssay (NCI).
